The target in the assay is T1, human kinase Mps-1 (Homo sapiens, UniProt P33981).
T1 construct: N-terminally GST-tagged human full length recombinant Mps-1 kinase; GST (N); purchased Invitrogen, Karslruhe, Germany PV4071
T1 sequence (P33981 1-857): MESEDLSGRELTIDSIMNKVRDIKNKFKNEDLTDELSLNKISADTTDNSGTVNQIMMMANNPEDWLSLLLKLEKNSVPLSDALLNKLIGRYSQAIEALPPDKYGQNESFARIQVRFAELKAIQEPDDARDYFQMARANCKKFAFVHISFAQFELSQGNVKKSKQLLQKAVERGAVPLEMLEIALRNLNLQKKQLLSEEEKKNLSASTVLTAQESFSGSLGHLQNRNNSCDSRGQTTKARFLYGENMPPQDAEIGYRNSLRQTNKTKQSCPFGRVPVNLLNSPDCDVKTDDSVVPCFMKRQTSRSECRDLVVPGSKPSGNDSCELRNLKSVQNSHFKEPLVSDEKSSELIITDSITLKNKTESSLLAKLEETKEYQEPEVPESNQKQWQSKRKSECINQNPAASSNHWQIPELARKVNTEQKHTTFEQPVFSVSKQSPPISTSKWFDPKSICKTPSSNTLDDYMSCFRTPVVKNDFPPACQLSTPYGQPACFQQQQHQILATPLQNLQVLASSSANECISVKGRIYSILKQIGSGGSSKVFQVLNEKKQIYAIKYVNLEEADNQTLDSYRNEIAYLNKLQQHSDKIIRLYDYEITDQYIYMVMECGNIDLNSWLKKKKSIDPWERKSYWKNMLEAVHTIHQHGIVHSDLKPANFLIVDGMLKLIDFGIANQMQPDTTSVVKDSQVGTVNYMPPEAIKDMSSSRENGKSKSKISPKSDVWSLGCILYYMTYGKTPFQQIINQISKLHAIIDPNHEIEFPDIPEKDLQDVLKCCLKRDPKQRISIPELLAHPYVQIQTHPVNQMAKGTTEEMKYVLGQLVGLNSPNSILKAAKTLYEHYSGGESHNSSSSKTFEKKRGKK
Description: Mps-1 kinase assay (TR-FRET). Format: biochemical. The conditions noted are these: Mps-1 TR-FRET kinase assay; avg; read-out: Mps1 avg (IC50 [mol/l]). Put shortly:
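Inhibition normalised between uninhibited reaction (0%) and enzyme-free wells (100%), using the blank-corrected TR-FRET 665/620 nm ratio after EDTA stop. Reaction: ~0.5 nM GST-Mps-1 full length, 10 μM ATP, 1 μM biotin-peptide, 60 min at 22 °C, after 15 min compound pre-binding, pH 7.7.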

Where “and” joins values, the source holds several entries; their conditions need not be identical. Equal values may be shown once. Where only a bound is given, the exact number is not on record here.

Take `CC(=O)Nc1cc(NC(=O)c2c(C)nsc2Nc2cnccn2)ccc1F` [Example 205, N-(3-acetamido-4-fluorophenyl)-3-methyl-5-(pyrazin-2-ylamino)-1,2-thiazole-4-carboxamide]: the IC50 was above 20 µM. Under `Cc1nsc(Nc2cncc(C(F)(F)F)n2)c1C(=O)Nc1ccc(OCCCNC(=O)OC(C)(C)C)nc1` [Example 190, tert-butyl {3-[(5-{[(3-methyl-5-{[6-(trifluoromethyl)pyrazin-2-yl]amino}-1,2-thiazoL-4-yl)carbonyl]amino}pyridin-2-yl)oxy]propyl}carbamate] stands above 20 µM; under `Cc1nsc(Nc2cnc(C(F)(F)F)cn2)c1C(=O)Nc1ccc(OC2CCN(C)CC2)nc1` [Example 220, 3-methyl-N-{6-[(1-methylpiperidin-4-yl)oxy]pyridin-3-yl}-5-{[5-(trifluoromethyl)pyrazin-2-yl]amino}-1,2-thiazole-4-carboxamide], above 20 µM. Consider `Cc1nsc(Nc2cncc(C(F)(F)F)n2)c1C(=O)Nc1ccc(OC2CCNCC2)nc1` [Example 13, 3-Methyl-N-[6-(piperidin-4-yloxy)pyridin-3-yl]-5-{[6-(trifluoromethyl)pyrazin-2-yl]-amino}-1,2-thiazole-4-carboxamide], for which the IC50 is at least 20 µM. The result for `CNS(=O)(=O)c1ccc(NC(=O)c2c(C)nsc2Nc2cc(C#N)ccn2)cc1` [Example 210, 5-[(4-cyanopyridin-2-yl)amino]-3-methyl-N-[4-(methylsulfamoyl)phenyl]-1,2-thiazole-4-carboxamide] reads above 20 µM; that for `Cc1nsc(Nc2cc(C#N)ccn2)c1C(=O)Nc1ccc(NC2CCCNC2)nc1` (centres unmarked) [Example 242, 5-[(4-cyanopyridin-2-yl)amino]-3-methyl-N-[6-(piperidin-3-ylamino)pyridin-3-yl]-1,2-thiazole-4-carboxamide], above 20 µM; that for `Cc1nsc(Nc2cncc(C(F)(F)F)n2)c1C(=O)Nc1ccc(OC2CCN(C)CC2)nc1` [Example 219, 3-methyl-N-{6-[(1-methylpiperidin-4-yl)oxy]pyridin-3-yl}-5-{[6-(trifluoromethyl)pyrazin-2-yl]amino}-1,2-thiazole-4-carboxamide], above 20 µM. The result for `CC(=O)Nc1cc(NC(=O)c2c(C)nsc2Nc2cnc(C(F)(F)F)cn2)ccc1F` [Example 206, N-(3-acetamido-4-fluorophenyl)-3-methyl-5-{[5-(trifluoromethyl)pyrazin-2-yl]amino}-1,2-thiazole-4-carboxamide] reads above 20 µM.

For the compound `Cc1nsc(Nc2cc(C#N)ccn2)c1C(=O)Nc1cccc(NC(=O)C(C)(C)C)c1` [Example 183, 5-[(4-cyanopyridin-2-yl)amino]-N-{3-[(2,2-dimethylpropanoyl)amino]phenyl}-3-methyl-1,2-thiazole-4-carboxamide], the IC50 was above 20 µM.

With `Cc1nsc(Nc2cnc(C(F)(F)F)cn2)c1C(=O)Nc1ccc(OCC2CCCN(C(=O)OC(C)(C)C)C2)nc1` (centres unmarked) [Example 228, tert-butyl 3-{[(5-{[(3-methyl-5-{[5-(trifluoromethyl)pyrazin-2-yl]amino}-1,2-thiazol-4-yl)carbonyl]amino}pyridin-2-yl)oxy]methyl}piperidine-1-carboxylate], the IC50 was above 20 µM. Under `COC(=O)CCc1cccc(NC(=O)c2c(C)nsc2Nc2ccc(C#N)cn2)c1` [Example 176, methyl 3-{3-[({5-[(5-cyanopyridin-2-yl)amino]-3-methyl-1,2-thiazol-4-yl}carbonyl)amino]phenyl}propanoate] stands above 20 µM; under `Cc1nsc(Nc2cnccn2)c1C(=O)Nc1ccc(C(=O)OC(C)(C)C)cc1` [Example 184, tert-butyl 4-({[3-methyl-5-(pyrazin-2-ylamino)-1,2-thiazol-4-yl]carbonyl}amino)benzoate], above 20 µM. Under `Cc1nsc(Nc2cnc(C(F)(F)F)cn2)c1C(=O)Nc1ccc(OCC2CCN(C(=O)OC(C)(C)C)CC2)nc1` [Example 227, tert-butyl 4-{[(5-{[(3-methyl-5-{[5-(trifluoromethyl)pyrazin-2-yl]amino}-1,2-thiazol-4-yl)carbonyl]amino}pyridin-2-yl)oxy]methyl}piperidine-1-carboxylate] stands above 20 µM; under `Cc1nsc(Nc2cncc(C(F)(F)F)n2)c1C(=O)Nc1ccc(C(=O)OC(C)(C)C)cc1` [Example 193, tert-butyl tert-butyl 4-{[(3-methyl-5-{[6-(trifluoromethyl)pyrazin-2-yl]amino}-1,2-thiazol-4-yl)carbonyl]amino}benzoate], above 20 µM; under `Cc1nsc(Nc2cncc(C(F)(F)F)n2)c1C(=O)Nc1ccc(OCCNC(=O)OC(C)(C)C)nc1` [Example 191, tert-butyl {2-[(5-{[(3-methyl-5-{[6-(trifluoromethyl)pyrazin-2-yl]amino}-1,2-thiazol-4-yl)carbonyl]amino}pyridin-2-yl)oxy]ethyl}carbamate], above 20 µM. The result for `Cc1nsc(Nc2cnc3ccccc3n2)c1C(=O)Nc1ccc(NCCC(=O)OC(C)(C)C)nc1` [Example 236, tert-butyl N-[5-({[3-methyl-5-(quinoxalin-2-ylamino)-1,2-thiazol-4-yl]carbonyl}amino)pyridin-2-yl]-beta-alaninate] reads > 20 µM and 14 µM; that for `Cc1nsc(Nc2ccc(C#N)cn2)c1C(=O)Nc1cccc(NC(=O)OC(C)(C)C)c1` [Example 179, tert-butyl {3-[({5-[(5-cyanopyridin-2-yl)amino]-3-methyl-1,2-thiazol-4-yl}carbonyl)amino]phenyl}carbamate], above 20 µM; that for `Cc1nsc(Nc2cnc(C(F)(F)F)cn2)c1C(=O)Nc1ccc(OCCNC(=O)OC(C)(C)C)c(F)c1` [Example 215, tert-butyl [2-(2-fluoro-4-{[(3-methyl-5-{[5-(trifluoromethyl)pyrazin-2-yl]amino}-1,2-thiazol-4-yl)carbonyl]amino}phenoxy)ethyl]carbamate], above 20 µM.

Regarding `Cc1nsc(Nc2cnc3ccccc3n2)c1C(=O)Nc1ccc(OC2CCNCC2)nc1` [Example 19, 3-Methyl-N-[6-(piperidin-4-yloxy)pyridin-3-yl]-5-(quinoxalin-2-ylamino)-1,2-thiazole-4-carboxamide], the IC50 is at least 20 µM.

As for `Cc1nsc(Nc2cncc(C(F)(F)F)n2)c1C(=O)Nc1ccc(OC2CCCN(C(=O)OC(C)(C)C)C2)nc1` (centres unmarked) [Example 189, tert-butyl 3-[(5-{[(3-methyl-5-{[6-(trifluoromethyl)pyrazin-2-yl]amino}-1,2-thiazol-4-yl)carbonyl]amino}pyridin-2-yl)oxy]piperidine-1-carboxylate], the IC50 is above 20 µM.

In the case of `Cc1nsc(Nc2cncc(C(F)(F)F)n2)c1C(=O)Nc1ccc(OCC2CCN(C(=O)OC(C)(C)C)CC2)nc1` [Example 226, tert-butyl 4-{[(5-{[(3-methyl-5-{[6-(trifluoromethyl)pyrazin-2-yl]amino}-1,2-thiazol-4-yl)carbonyl]amino}pyridin-2-yl)oxy]methyl}piperidine-1-carboxylate], the IC50 was above 20 µM. Under `Cc1cc(C)n(-c2ccccc2NC(=O)c2c(C)nsc2Nc2cnc3ccccc3n2)n1` [Example 243, N-[2-(3,5-dimethyl-1H-pyrazol-1-yl)phenyl]-3-methyl-5-(quinoxalin-2-ylamino)-1,2-thiazole-4-carboxamide] stands above 20 µM. Turning to `CNC(=O)c1ccc(NC(=O)c2c(C)nsc2Nc2cnc3ccccc3n2)cc1F` [Example 207, N-[3-fluoro-4-(methylcarbamoyl)phenyl]-3-methyl-5-(quinoxalin-2-ylamino)-1,2-thiazole-4-carboxamide], the IC50 was above 20 µM. The result for `Cc1nsc(Nc2cc(C#N)ccn2)c1C(=O)Nc1ccc(OCCC(=O)OC(C)(C)C)nc1` [Example 200, tert-butyl 3-({5-[({5-[(4-cyanopyridin-2-yl)amino]-3-methyl-1,2-thiazol-4-yl}carbonyl)amino]pyridin-2-yl}oxy)propanoate] reads above 20 µM. The result for `Cc1nsc(Nc2cc(C#N)ccn2)c1C(=O)Nc1ccc(NC(=O)OC(C)(C)C)cc1` [Example 177, tert-butyl {4-[({5-[(4-cyanopyridin-2-yl)amino]-3-methyl-1,2-thiazol-4-yl}carbonyl)amino]phenyl}carbamate] reads above 20 µM. For the compound `Cc1nsc(Nc2cncc(C(F)(F)F)n2)c1C(=O)Nc1ccc(C(=O)NC2CCN(CC(F)F)CC2)cc1` [Example 225, N-N-(4-{[1-(2,2-difluoroethyl)piperidin-4-yl]carbamoyl}phenyl)-3-methyl-5-{[6-(trifluoromethyl)pyrazin-2-yl]amino}-1,2-thiazole-4-carboxamide], the IC50 was above 20 µM.

The values above are taken from patent US20170334899A1, “AMINO-SUBSTITUTED ISOTHIAZOLES” (Bayer Pharma Aktiengesellschaft, priority 2014, published 2017).
